Laboratory results published in PubChem BioAssay (NCI).
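Compound exposure: 48 hours, 5 concentrations, 96-well plates. TGI denotes the concentration required for complete inhibition of growth.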

Columns and labels:
Assay in all cases: growth of human tumour cells (NCI), 48 h
786-0 renal = system: 786-0 renal
A498 renal = system: A498 renal
A549 NSCLC = system: A549 NSCLC
ACHN renal = system: ACHN renal
BT-549 breast = system: BT-549 breast
CAKI-1 renal = system: CAKI-1 renal
CCRF-CEM leukemia = system: CCRF-CEM leukemia
COLO 205 colon = system: COLO 205 colon
DU-145 prostate = system: DU-145 prostate
EKVX NSCLC = system: EKVX NSCLC
HCC-2998 colon = system: HCC-2998 colon
HCT-116 colon = system: HCT-116 colon
HCT-15 colon = system: HCT-15 colon
HOP-62 NSCLC = system: HOP-62 NSCLC
HOP-92 NSCLC = system: HOP-92 NSCLC
HS 578T breast = system: HS 578T breast
HT29 colon = system: HT29 colon
IGROV1 ovarian = system: IGROV1 ovarian
K-562 leukemia = system: K-562 leukemia
KM12 colon = system: KM12 colon
LOX IMVI melanoma = system: LOX IMVI melanoma
M14 melanoma = system: M14 melanoma
MALME-3M melanoma = system: MALME-3M melanoma
MCF7 breast = system: MCF7 breast
MDA-MB-231 breast = system: MDA-MB-231 breast
MDA-MB-435 = system: MDA-MB-435
MDA-N = system: MDA-N
MOLT-4 leukemia = system: MOLT-4 leukemia
NCI-H226 lung = system: NCI-H226 lung
NCI-H23 lung = system: NCI-H23 lung
NCI-H460 lung = system: NCI-H460 lung
NCI-H522 lung = system: NCI-H522 lung
NCI/ADR-RES ovarian = system: NCI/ADR-RES ovarian
OVCAR-3 ovarian = system: OVCAR-3 ovarian
OVCAR-4 ovarian = system: OVCAR-4 ovarian
OVCAR-5 ovarian = system: OVCAR-5 ovarian
OVCAR-8 ovarian = system: OVCAR-8 ovarian
PC-3 prostate = system: PC-3 prostate
RPMI-8226 leukemia = system: RPMI-8226 leukemia
RXF 393 renal = system: RXF 393 renal
SF-268 CNS = system: SF-268 CNS
SF-295 CNS = system: SF-295 CNS
SF-539 CNS = system: SF-539 CNS
SK-MEL-2 melanoma = system: SK-MEL-2 melanoma
SK-MEL-5 melanoma = system: SK-MEL-5 melanoma
SK-OV-3 ovarian = system: SK-OV-3 ovarian
SN12C renal = system: SN12C renal
SNB-19 CNS = system: SNB-19 CNS
SNB-75 CNS = system: SNB-75 CNS
SW-620 colon = system: SW-620 colon
T-47D breast = system: T-47D breast
TK-10 renal = system: TK-10 renal
U251 CNS = system: U251 CNS
UACC-257 melanoma = system: UACC-257 melanoma
UACC-62 melanoma = system: UACC-62 melanoma
UO-31 renal = system: UO-31 renal
HL-60(TB) leukemia = system: HL-60(TB) leukemia
SK-MEL-28 melanoma = system: SK-MEL-28 melanoma

## CCCCNc1nc2nc[nH]c2c(=O)[nH]1
786-0 renal
  TGI: > 100 µM
A498 renal
  TGI: > 100 µM
A549 NSCLC
  TGI: > 100 µM
ACHN renal
  TGI: > 100 µM
BT-549 breast
  TGI: > 100 µM
CAKI-1 renal
  TGI: > 100 µM
CCRF-CEM leukemia
  TGI: > 100 µM
COLO 205 colon
  TGI: > 100 µM
DU-145 prostate
  TGI: > 100 µM
EKVX NSCLC
  TGI: > 100 µM
HCC-2998 colon
  TGI: > 100 µM
HCT-116 colon
  TGI: > 100 µM
HCT-15 colon
  TGI: > 100 µM
HOP-62 NSCLC
  TGI: > 100 µM
HOP-92 NSCLC
  TGI: > 100 µM
HS 578T breast
  TGI: > 100 µM
HT29 colon
  TGI: > 100 µM
IGROV1 ovarian
  TGI: > 100 µM
K-562 leukemia
  TGI: > 100 µM
KM12 colon
  TGI: > 100 µM
LOX IMVI melanoma
  TGI: > 100 µM
M14 melanoma
  TGI: > 100 µM
MALME-3M melanoma
  TGI: > 100 µM
MCF7 breast
  TGI: > 100 µM
MDA-MB-231 breast
  TGI: > 100 µM
MDA-MB-435
  TGI: > 100 µM
MDA-N
  TGI: > 100 µM
MOLT-4 leukemia
  TGI: > 100 µM
NCI-H226 lung
  TGI: > 100 µM
NCI-H23 lung
  TGI: > 100 µM
NCI-H460 lung
  TGI: > 100 µM
NCI-H522 lung
  TGI: > 100 µM
NCI/ADR-RES ovarian
  TGI: > 100 µM
OVCAR-3 ovarian
  TGI: > 100 µM
OVCAR-4 ovarian
  TGI: > 100 µM
OVCAR-5 ovarian
  TGI: > 100 µM
OVCAR-8 ovarian
  TGI: > 100 µM
PC-3 prostate
  TGI: > 100 µM
RPMI-8226 leukemia
  TGI: > 100 µM
RXF 393 renal
  TGI: > 100 µM
SF-268 CNS
  TGI: > 100 µM
SF-295 CNS
  TGI: > 100 µM
SF-539 CNS
  TGI: > 100 µM
SK-MEL-2 melanoma
  TGI: > 100 µM
SK-MEL-5 melanoma
  TGI: > 100 µM
SK-OV-3 ovarian
  TGI: > 100 µM
SN12C renal
  TGI: > 100 µM
SNB-19 CNS
  TGI: > 100 µM
SNB-75 CNS
  TGI: > 100 µM
SW-620 colon
  TGI: > 100 µM
T-47D breast
  TGI: > 100 µM
TK-10 renal
  TGI: > 100 µM
U251 CNS
  TGI: > 100 µM
UACC-257 melanoma
  TGI: > 100 µM
UACC-62 melanoma
  TGI: > 100 µM
UO-31 renal
  TGI: > 100 µM

## N#CCCN(CCCN(C(=O)N(c1ccccc1)c1ccccc1)c1ccccc1)C(=O)Nc1ccccc1
786-0 renal
  TGI: > 100 µM
A498 renal
  TGI: > 100 µM
A549 NSCLC
  TGI: > 100 µM
ACHN renal
  TGI: > 100 µM
BT-549 breast
  TGI: > 100 µM
CAKI-1 renal
  TGI: > 100 µM
CCRF-CEM leukemia
  TGI: 83.6 µM
DU-145 prostate
  TGI: > 100 µM
EKVX NSCLC
  TGI: > 100 µM
HCC-2998 colon
  TGI: > 100 µM
HCT-116 colon
  TGI: > 100 µM
HCT-15 colon
  TGI: > 100 µM
HL-60(TB) leukemia
  TGI: 45.1 µM
HOP-62 NSCLC
  TGI: > 100 µM
HOP-92 NSCLC
  TGI: > 100 µM
HS 578T breast
  TGI: > 100 µM
HT29 colon
  TGI: > 100 µM
K-562 leukemia
  TGI: > 100 µM
KM12 colon
  TGI: > 100 µM
LOX IMVI melanoma
  TGI: > 100 µM
M14 melanoma
  TGI: > 100 µM
MALME-3M melanoma
  TGI: > 100 µM
MCF7 breast
  TGI: > 100 µM
MDA-MB-231 breast
  TGI: > 100 µM
MDA-MB-435
  TGI: > 100 µM
MDA-N
  TGI: > 100 µM
MOLT-4 leukemia
  TGI: > 100 µM
NCI-H226 lung
  TGI: > 100 µM
NCI-H23 lung
  TGI: > 100 µM
NCI-H460 lung
  TGI: > 100 µM
NCI-H522 lung
  TGI: > 100 µM
NCI/ADR-RES ovarian
  TGI: > 100 µM
OVCAR-3 ovarian
  TGI: > 100 µM
OVCAR-4 ovarian
  TGI: > 100 µM
OVCAR-5 ovarian
  TGI: > 100 µM
OVCAR-8 ovarian
  TGI: > 100 µM
PC-3 prostate
  TGI: > 100 µM
RPMI-8226 leukemia
  TGI: > 100 µM
RXF 393 renal
  TGI: > 100 µM
SF-268 CNS
  TGI: > 100 µM
SF-295 CNS
  TGI: > 100 µM
SF-539 CNS
  TGI: > 100 µM
SK-MEL-2 melanoma
  TGI: > 100 µM
SK-MEL-28 melanoma
  TGI: > 100 µM
SK-MEL-5 melanoma
  TGI: > 100 µM
SK-OV-3 ovarian
  TGI: > 100 µM
SNB-19 CNS
  TGI: > 100 µM
SNB-75 CNS
  TGI: > 100 µM
SW-620 colon
  TGI: > 100 µM
T-47D breast
  TGI: > 100 µM
TK-10 renal
  TGI: > 100 µM
U251 CNS
  TGI: > 100 µM
UACC-257 melanoma
  TGI: > 100 µM
UACC-62 melanoma
  TGI: > 100 µM
UO-31 renal
  TGI: > 100 µM
